The test system of assay [1] is S. epidermidis Ax 25. The assay can be described thus: Bactericidal activity (MBC), 60 min contact. It is filed as cell-based. Conditions: Staphylococcus epidermidis, AX25, 1 h, inoculum completely killed after 60 min incubation, read-out: MBC (minimal bactericidal concentration). The text has this: (§1) The different axilla bacteria are isolated from the human axilla according to techniques known in the art, in particular according to standard microbiological practice. They are taxonomically identified by cell morphology, gram-reaction and biochemical tests included in the Api coryne test kit (BioMerieux, France). Strain Staphylococcus epidermidis Ax25 is identified by fatty acid methyl ester analysis (FAME; German type strain collection DSMZ, Germany) . Escherichia coli DSM 682, Staphylococcus aureus DSM 799, and Corynebacterium xerosis DSM 20170 are obtained from the German-type strain collection. The strains are maintained on Tryptic soy broth plates, this standard medium being supplemented with 5 g per Litre of Polyoxyethylene Sorbitan Monooleate (TweenTM 80). Plates are incubated at 36° C. for a period of 48 hours. The bacteria are then swabbed from the plates and suspended in 4 ml of Muller-Hinton broth supplemented with 100 mg of TweenTM 80 per Litre (MH-Tween) and incubated again at 36° C. for 16 hours. Following incubation the bacterial suspensions are diluted in MH-Tween to obtain a final cell density of 10^7 colony forming units per ml. These diluted suspensions of the different test organisms are distributed to different columns of a microtiter plate, 100 μl per well. The test compounds are dissolved in dimethylsulfoxide (DMSO) at various test concentrations and 2.5 μl of these different DMSO solutions are added to the different wells of the test plates. The plates are covered with plastic films and incubated for 24 h at 36° C. with shaking at 250 rpm. The turbidity developing in the microtiter […] examined after 24 h to determine microbial growth. […] The bacteria are grown, harvested and diluted under the same conditions as described in the example above and added to microtiter plates (100 μl per well), each well containing 2.5 μl of the different DMSO solutions as described above. After 60 min incubation, 0.5 μl of the bacterial culture from each well (corresponding to 5×10^3 cfu in the control treatment) is transferred to a fresh microtiter plate which contained 100 μl per well of fresh medium. The plates are covered with plastic films and incubated for 24 h at 36° C. with shaking at 250 rpm. The turbidity developing in the microtiter plates is then examined after 24 h to determine microbial growth. The minimal concentration of test compounds which completely killed the bacterial inoculum is determined as the minimal bactericidal concentration (MBC).

Assay [2] has as its system C. xerosis DSM 20170. The assay can be described thus: Bactericidal activity (MBC), 60 min contact. It is filed as cell-based. Conditions: Corynebacterium xerosis, DSM20170, 1 h, inoculum completely killed after 60 min incubation, read-out: MBC (minimal bactericidal concentration).
Source text: as §1

The subject of another assay is Escherichia coli DSM 682. The assay is described as follows: Bacteriostatic activity (MIC), microtiter broth turbidity. It is filed as cell-based. Conditions: read-out: MIC (minimal inhibitory concentration). The text has this:
(§2) The bacteriostatic effects of the compounds of the present invention are compared with those of known anti-bacterial agents against human skin bacteria. Typical bacteria (Corynebacterium and Staphylococcus strains) isolated from the human axilla and commercially available strains are used.
(§3) The different axilla bacteria are isolated from the human axilla according to techniques known in the art, in particular according to standard microbiological practice. They are taxonomically identified by cell morphology, gram-reaction and biochemical tests included in the Api coryne test kit (BioMerieux, France). Strain Staphylococcus epidermidis Ax25 is identified by fatty acid methyl ester analysis (FAME; German type strain collection DSMZ, Germany) . […] The strains are maintained on Tryptic soy broth plates, this standard medium being supplemented with 5 g per Litre of Polyoxyethylene Sorbitan Monooleate (Tween™ 80). Plates are incubated at 36° C. for a period of 48 hours. The bacteria are then swabbed from the plates and suspended in 4 ml of Muller-Hinton broth supplemented with 100 mg of Tween™ 80 per Litre (MH-Tween) and incubated again at 36° C. for 16 hours. Following incubation the bacterial suspensions are diluted in MH-Tween to obtain a final cell density of 10^7 colony forming units per ml. These diluted suspensions of the different test organisms are distributed to different columns of a microtiter plate, 100 μl per well. The test compounds are dissolved in dimethylsulfoxide (DMSO) at various test concentrations and 2.5 μl of these different DMSO solutions are added to the different wells of the test plates. The plates are covered with plastic films and incubated for 24 h at 36° C. with shaking at 250 rpm. The turbidity developing in the microtiter platesi then examined after 24 h to determine microbial growth.

In assay [3] the test system is Staphylococcus aureus DSM 799. The description is as above. It is filed as cell-based. As to conditions: read-out: MIC (minimal inhibitory concentration).
Source text: as §2, §3

In assay [4] the test system is S. epidermidis Ax 25. Described as above. Conditions: Staphylococcus epidermidis, read-out: MIC (minimal inhibitory concentration). It counts as cell-based.
Source text: as §2, §3

In assay [5] the test system is C. xerosis DSM 20170. The assay is described as above. It is filed as cell-based. As to conditions: Corynebacterium xerosis, read-out: MIC (minimal inhibitory concentration).
Source text: as §2, §3

The test system of assay [6] is Corynebacterium Ax 15. Described as above. It is filed as cell-based, Corynebacterium jeikeium. As to conditions: read-out: MIC (minimal inhibitory concentration).
Source text: as §2, §3

Assay [7] concerns Corynebacterium Ax 7. The description is as above. It counts as cell-based, Corynebacterium group G. As to conditions: read-out: MIC (minimal inhibitory concentration).
Source text: as §2, §3

Assay [8] deals with Corynebacterium Ax 7. The assay can be described thus: Bactericidal activity (MBC), 60 min contact. It is filed as cell-based, Corynebacterium group G. As to conditions: AX7, 1 h, inoculum completely killed after 60 min incubation, read-out: MBC (minimal bactericidal concentration).
Source text: as §1

Assay [9] has as its system Corynebacterium Ax 15. The assay is described as follows: Bactericidal activity (MBC), 60 min contact. It counts as cell-based, Corynebacterium jeikeium. As to conditions: AX15, 1 h, inoculum completely killed after 60 min incubation, read-out: MBC (minimal bactericidal concentration).
Source text: as §1

Where [10] appears, read: DSM682, Escherichia coli DSM 682, growth inhibited by at least 80%, 24 h at 36° C.
[11] abbreviates: DSM799, Staphylococcus aureus DSM 799, growth inhibited by at least 80%, 24 h at 36° C.
Setting [12] is: AX25, S. epidermidis Ax 25, growth inhibited by at least 80%, 24 h at 36° C.
The mark [13] stands for this setting: DSM20170, C. xerosis DSM 20170, growth inhibited by at least 80%, 24 h at 36° C.
Where [14] appears, read: AX15, Corynebacterium Ax 15, growth inhibited by at least 80%, 24 h at 36° C.
The mark [15] stands for this setting: AX7, Corynebacterium Ax 7, growth inhibited by at least 80%, 24 h at 36° C.
Setting [16] is: Staphylococcus aureus, DSM799, 24 h.

The structures appear in SMILES notation. ≈ marks a conversion by molar mass, not a printed value. Where two headings read alike, the source gives them in different places.

Consider `CC(COCC(=O)O)Cc1ccc(C(C)(C)C)cc1` (stereo not drawn) [compound 1, [3-(4-tert.-Butyl-phenyl)-2-methyl-propoxy]-acetic acid], for which the MBC in the assay on S. epidermidis Ax 25 [1] was at least 5000 µg/mL; in the assay with C. xerosis DSM 20170 [2], 2500 µg/mL (≈ 9.46 mM); in the assay with Corynebacterium Ax 7 [8] it was 2500 µg/mL (≈ 9.46 mM); in the assay on Corynebacterium Ax 15 [9] it was at least 5000 µg/mL. Also, the MIC in the assay with Escherichia coli DSM 682 (setting [10]) was 2500 µg/mL (≈ 9.46 mM); in assay [3] (setting [11]) it was 625 µg/mL (≈ 2.36 mM); in the assay with S. epidermidis Ax 25 [4] (setting [12]), 625 µg/mL (≈ 2.36 mM); in the assay with C. xerosis DSM 20170 [5] (setting [13]) it was 313 µg/mL (≈ 1.18 mM); in the assay with Corynebacterium Ax 15 [6] (setting [14]), 1250 µg/mL (≈ 4.73 mM); in the assay with Corynebacterium Ax 7 [7] (setting [15]), 625 µg/mL (≈ 2.36 mM).
In the case of `CCCCCCC(CCCC)C(=O)NCC(=O)O` (stereo not drawn) [compound 10, (2-Butyl-octanoylamino)-acetic acid], the MBC was 2500 µg/mL (≈ 9.71 mM) with S. epidermidis Ax 25 [1], 2500 µg/mL (≈ 9.71 mM) in the assay on C. xerosis DSM 20170 [2], 1250 µg/mL (≈ 4.86 mM) in the assay with Corynebacterium Ax 7 [8] and over 2500 µg/mL in the assay with Corynebacterium Ax 15 [9]. Further, the MIC amounted to 1250 µg/mL (≈ 4.86 mM) in the assay with Escherichia coli DSM 682 (setting [10]); 1250 µg/mL (≈ 4.86 mM) in assay [3] (setting [11]); 1250 µg/mL (≈ 4.86 mM) with S. epidermidis Ax 25 [4] (setting [12]); 630 µg/mL (≈ 2.45 mM) in the assay with C. xerosis DSM 20170 [5] (setting [13]); 1250 µg/mL (≈ 4.86 mM) with Corynebacterium Ax 15 [6] (setting [14]); 1250 µg/mL (≈ 4.86 mM) with Corynebacterium Ax 7 [7] (setting [15]).
`CCCCCCC(CCCC)COCC(=O)O` (stereo not drawn) [compound 5, (2-Butyl-octyloxy)-acetic acid]: the MBC was over 2000 µg/mL with S. epidermidis Ax 25 [1], over 2500 µg/mL with C. xerosis DSM 20170 [2], 1250 µg/mL (≈ 5.12 mM) in the assay on Corynebacterium Ax 7 [8] and over 2500 µg/mL in the assay with Corynebacterium Ax 15 [9]. In addition, the MIC with Escherichia coli DSM 682 (setting [10]) was over 2500 µg/mL; in assay [3] (setting [11]), 160 µg/mL (≈ 0.655 mM); in the assay with S. epidermidis Ax 25 [4] (setting [12]), 160 µg/mL (≈ 0.655 mM); in the assay with C. xerosis DSM 20170 [5] (setting [13]), 80 µg/mL (≈ 0.327 mM); in the assay on Corynebacterium Ax 15 [6] (setting [14]) it was 310 µg/mL (≈ 1.27 mM); in the assay on Corynebacterium Ax 7 [7] (setting [15]), 160 µg/mL (≈ 0.655 mM).
With `CCCCC(CC)COCC(O)CO` (stereo not drawn) [C2, 3-(2-Ethyl-hexyloxy)-propane-1,2-diol, reference compound], the MIC is 630 µg/mL (≈ 3.08 mM) with Escherichia coli DSM 682 (Escherichia coli, DSM682, 24 h); 630 µg/mL (≈ 3.08 mM) in assay [3] (setting [16]); 1250 µg/mL (≈ 6.12 mM) in the assay with S. epidermidis Ax 25 [4] (AX25, 24 h); 630 µg/mL (≈ 3.08 mM) in the assay on C. xerosis DSM 20170 [5] (DSM20170, 24 h); 1250 µg/mL (≈ 6.12 mM) in the assay with Corynebacterium Ax 15 [6] (Corynebacterium, AX15, 24 h); 1250 µg/mL (≈ 6.12 mM) in the assay with Corynebacterium Ax 7 [7] (Corynebacterium, AX7, 24 h).
In the case of `CC(C)=CCCC(C)=CCCC(C)=CCO` [C3, Farnesol, reference compound], the MIC with Escherichia coli DSM 682 (setting [10]) was over 10000 µg/mL; in assay [3] (setting [11]), 160 µg/mL (≈ 0.72 mM); with S. epidermidis Ax 25 [4] (setting [12]), 160 µg/mL (≈ 0.72 mM); in the assay with C. xerosis DSM 20170 [5] (setting [13]) it was 80 µg/mL (≈ 0.36 mM); in the assay with Corynebacterium Ax 15 [6] (setting [14]), 160 µg/mL (≈ 0.72 mM); in the assay with Corynebacterium Ax 7 [7] (setting [15]), 140 µg/mL (≈ 0.63 mM).
Consider `Oc1cc(Cl)ccc1Oc1ccc(Cl)cc1Cl` [C4, Triclosan, reference compound], for which the MIC came out at 5 µg/mL (≈ 0.0173 mM) in the assay on Escherichia coli DSM 682 (Escherichia coli, DSM682, 24 h); 5 µg/mL (≈ 0.0173 mM) in assay [3] (setting [16]); 0.15 µg/mL (≈ 0.000518 mM) in the assay with S. epidermidis Ax 25 [4] (AX25, 24 h); 15 µg/mL (≈ 0.0518 mM) with C. xerosis DSM 20170 [5] (DSM20170, 24 h); 30 µg/mL (≈ 0.104 mM) in the assay on Corynebacterium Ax 15 [6] (Corynebacterium, AX15, 24 h); 30 µg/mL (≈ 0.104 mM) in the assay with Corynebacterium Ax 7 [7] (Corynebacterium, AX7, 24 h).

(Values after patent US20070276045A1, “Anti-Bacterial Compounds” (priority 2004, published 2007).)
